This is an account of results in publication PMC7091509 (Biophysical Journal, 2020).

“Also recorded” adds a separate entry of the source.

Assay [1] concerns the target first vinculin head domain Vd1 (aa 1-258), SII-Vd1-ybbR (UniProt P18206). The assay is described as follows: AFM single-molecule force spectroscopy.
Assay [2] relates to first vinculin head domain (Vd1). The assay is described as follows: AFM single-molecule force spectroscopy. Type of assay: binding. The settings on record: for relative mechanical stability of Vd1-VBS complex / ratio of unfolding to direct unbinding (UF/UB): shear-like pulling; for relative mechanical stability of Vd1-VBS complex: AFM experiments and simulations; for ratio of unfolding to direct unbinding (UF/UB): derived from AFM experiments.

For the next assay, the system named is vinculin. The following applies: cited from earlier work.
The mark [3] stands for this setting: C-terminal pulling, bimodal distribution, 800 nm/s.

Chain of first vinculin head domain Vd1 (aa 1-258), SII-Vd1-ybbR (P18206 1-258): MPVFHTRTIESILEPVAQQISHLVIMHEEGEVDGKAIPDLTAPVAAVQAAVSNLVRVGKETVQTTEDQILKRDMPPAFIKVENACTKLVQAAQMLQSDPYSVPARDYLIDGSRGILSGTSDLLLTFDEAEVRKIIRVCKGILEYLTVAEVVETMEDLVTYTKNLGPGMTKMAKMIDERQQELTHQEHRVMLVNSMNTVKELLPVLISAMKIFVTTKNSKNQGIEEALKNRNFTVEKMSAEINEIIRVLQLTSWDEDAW

Regarding “talin VBS58 peptide with C-terminal cysteine (GSGS-VBS-GSGS-C) (from UniProt Q9Y490 2345-2369)”, in assay [1], the UF/UB (ratio of unfolding to direct unbinding) was 0.4 and the mean rupture force fell in the range of 45 to 60 pN.

As to “talin VBS58 peptide with N-terminal cysteine (C-GSGS-VBS-GSGS) (from UniProt Q9Y490 2345-2369)”, the UF/UB (ratio of unfolding to direct unbinding) in assay [1] worked out at 0.

On to ILEAAKSIAAATSALVKAASAAQRE [Talin VBS58], for which, in assay [2], the “relative mechanical stability of Vd1-VBS complex” value was “least stable complex; also recorded: low mechanical stability” and the “ratio of unfolding to direct unbinding (UF/UB)” value is “≈ 0.4”. Further, the “interaction in SPOT-peptide assay” value in the assay on vinculin is recorded as “strong interaction”.

Consider GEMVGQARILAQATSDLVNAIKDA [Talin VBS11], for which the “direct unbinding in experiment” value in assay [2] (C-terminal (shear-like) pulling, 800 nm/s) was “almost no direct unbinding”. Moreover, in assay [2] (setting [3]), the “rupture force of high-force population” value was greater than 60 pN and the “rupture force of low-force population” value is recorded as less than 60 pN. Also, in assay [2] (N-terminal pulling, 800 nm/s), the high-force population entry is on record as “disappeared”. For the same substance, the “unfolding pattern in AFM traces” value in assay [2] (shear-like pulling (C-terminal; N-terminal for α-actinin), 800 nm/s) is listed as “shows a population of high-force traces with multiple unfolding peaks”. For the same substance, in assay [2], the “relative mechanical stability of Vd1-VBS complex” value was “formed the most stable complex” and the “ratio of unfolding to direct unbinding (UF/UB)” value is recorded as “≈ 2”.

“talin VBS11 peptide with N-terminal cysteine (C-GSGS-VBS-GSGS) (from UniProt Q9Y490 820-843)”: in assay [1], the UF/UB (ratio of unfolding to direct unbinding) was 0.

Take “talin VBS11 peptide with C-terminal cysteine (GSGS-VBS-GSGS-C) (from UniProt Q9Y490 820-843)”: in assay [1], the UF/UB (ratio of unfolding to direct unbinding) was found to be 2; the rupture force, high-force population is greater than 60 pN; the rupture force, low-force population is less than 60 pN.
